# From patent US20250207109A1, “ENGINEERED SPLIT DHFR-BASED METHODS AND SYSTEMS FOR SELECTING CELLS THAT HAVE STABLY ACQUIRED A HETEROLOGOUS POLYNUCLEOTIDE” (DNA Twopointo, Inc., priority 2022, published 2025)
# Tests used:
# Type in all cases: cell-based, human
# FKBP12.6tr_F36V = assay: Split DHFR complementation assay to show rimiducid-dependent dimerization; details: cells expressing FKBP12.6tr_F36V-DHFR fragment fusions; rimiducid 100 nM, methotrexate 0.2 μM
# Source text: The Split DHFR concept was employed as the basis of a test of whether a fragment of the human protein FKBP12.6 could dimerize in the presence of rimiducid. For this purpose, an F36V substitution was introduced into FKBP12.6 in an effort to render it sensitive to rimiducid-dependent dimerization as is the case for the paralogous protein FKBP12. See Clackson T, Yang W, Rozamus L W, Hatada M, Amara J F, Rollins C T, Stevenson L F, Magari S R, Wood S A, Courage N L, Lu X, Cerasoli F, Gilman M, Holt D A. Redesigning an FKBP-ligand interface to generate chemical dimerizers with novel specificity. Proc Natl Acad Sci USA. 1998; 95 (18): 10437-42. doi: 10.1073/pnas.95.18.10437.
# The truncated version of FKBP12.6 carrying the F36V substitution (SEQ ID NO: 192) was fused at its carboxy terminus to the two fragments of murine DHFR as in Example 1, with one of the fragments bearing the L22F and F31S substitutions to confer methotrexate resistance (SEQ ID NOs: 190 and 191). […]
# (§1) At left is the result for cells expressing the DHFR fragments fused to the P7A/P8A heterodimerizing coiled-coil peptides. […] Untransfected cells were analyzed under identical conditions as a control (at right).
# Jurkat T lymphoma cells = assay: Methotrexate selection of Jurkat cells co-transfected with pairs of transposons encoding mouse split DHFR fragments, flow cytometry for mTagBFP2/plobRFP; details: 0.1 μM methotrexate; compared with coiled coil pairs
# Source text: Transgenes encoding the six DHFR fusion proteins regulated by the EF1-alpha promoter were each placed in a Leap-In transposon vector that also included a transgene encoding a fluorescent protein. For the transposons expressing the amino-terminal piece of DHFR, the fluorescent protein was mTagBFP2. For the transposons expressing the carboxy-terminal piece, the fluorescent protein was plobRFP. These fluorescent protein transgenes were included so that cells carrying the two kinds of transposons could be readily identified by flow cytometry or fluorescent microscopy.
# Jurkat T lymphoma cells were transfected with the appropriate pairs of transposons (i.e., transposons encoding both an amino- and carboxy-terminal piece of DHFR fused to leucine zipper or coiled coil sequences that should associate stably with one another). The ThermoFisher Neon® electroporator was used with 100 μl tips and three pulses of 1350V, each pulse 10 mS in length. […]
# Successful methotrexate selection of cells carrying both transfected transposons was evident by the fact that the majority of cells expressed both mTagBFP2 and plobRFP. The cells were analyzed at ten days or six weeks after transfection as indicated.
# Jurkat cells = assay: Split DHFR complementation assay, methotrexate selection of Jurkat cells expressing DHFR fragment fusion proteins; details: 0.2 μM methotrexate, two weeks; rimiducid 100 nM for FKBP12.6tr pair
# Source text: The truncated version of FKBP12.6 carrying the F36V substitution (SEQ ID NO: 192) was fused at its carboxy terminus to the two fragments of murine DHFR as in Example 1, with one of the fragments bearing the L22F and F31S substitutions to confer methotrexate resistance (SEQ ID NOs: 190 and 191).
# As a control, the P7A/P8A pair of DHFR fragment fusion proteins (involving SEQ ID Nos: 188 and 189) was also used. Whereas the P7A/P8A pair of constructs co-expressed the DHFR fragments with a red fluorescent protein (RFP; plobRFP) or a blue fluorescent protein (BFP; mTagBFP2), both FKBP12.6 tr transposons carried a BFP transgene.
# Jurkat cells were co-transfected by electroporation (ThermoFisher Neon; 100 μl tips; 1350V, three 10 ms pulses) with pairs of plasmids carrying transposons encoding the two DHFR fragments (7.5 μg of each) together with mRNA encoding the Leap-In Transposase® enzyme (2 μg). The cells were plated in RPMI-1640 medium supplemented with fetal bovine serum (10% vol/vol) and methotrexate (0.2 μM). Rimiducid at 100 nM was added to the medium of cells that had been transfected with the FKBP12.6tr pair of plasmids.
# as §1
molecule,measurement,setting,value
CC[C@H](C(=O)N1CCCC[C@H]1C(=O)O[C@H](CCc1ccc(OC)c(OC)c1)c1cccc(OCC(=O)NCCNC(=O)COc2cccc([C@@H](CCc3ccc(OC)c(OC)c3)OC(=O)[C@@H]3CCCCN3C(=O)[C@@H](CC)c3cc(OC)c(OC)c(OC)c3)c2)c1)c1cc(OC)c(OC)c(OC)c1 [rimiducid],rimiducid dependence of survival in methotrexate,FKBP12.6tr_F36V,the cells failed to thrive when the drug was removed
leucine zipper pair of constructs: GCN4 Leucine Zipper-Linker-Mouse DHFR (1-105; L22F/F31S) and (106-186) fusion pair,average level of red and blue fluorescence of selected cells,Jurkat T lymphoma cells,higher average level of both red and blue fluorescence than the pairs involving the coiled coil sequences
P7A/P8A coiled coil fusion proteins: P7A / P8A Coiled Coil-Linker-Mouse DHFR (1-105; L22F/F31S) and (106-186) fusion pair (protein) chain 1: MGEIAALEAKNAALKAEIAALEAKNAALKAGCGGGGSGGGGSVRPLNCIVAVSQNMGIGKNGDFPWPPLRNESKYFQRMTTTSSVEGKQNLVIMGRKTWFSIPEKNRPLKDRINIVLSRELKEPPRGAHFLAKSLDDALRLIEQPEL chain 2: MKIAALKAENAALEAKIAALKAENAALEAGGCGGGGSGGGGSASKVDMVWIVGGSSVYQEAMNQPGHLRLFVTRIMQEFESDTFFPEIDLGKYKLLPEYPGVLSEVQEEKGIKYKFEVYEKKD,methotrexate resistance / survival of transfected cells,Jurkat cells,conferred methotrexate resistance on the transfected cells
